# According to patent publication US6465506B2, “Instillation techniques for ophthalmic agents to enhance treatment effect” (Ophthalmic Research Associates, Inc., priority 2001, dated 2002):
# Assay: Pupil diameter after instillation of pilocarpine 1% before vs after TBUT (digital imaging system)
# Type: in vivo
# Settings: 30 μL; for mean decrease from the baseline in pupil diameter: at 30 minutes, 6 normal eyes
# Procedure: The following study examines the efficacy of pilocarpine, 1% in constricting the pupil and tropicamide, 1% in dilating the pupil when instilled before and after TBUT. Baseline pupil diameters were determined in 12 normal eyes using a digital imaging system (and controlling illumination). Six (6) of the eyes were dosed with 30 μL of pilocarpine and 6 with 30 μL of tropicamide, all before TBUT. Pupil diameter was measured every minute for 30 minutes after instillation. One day later, the same procedures were repeated in the same eyes, except that the subjects were instructed to stare without blinking (≧6 seconds) before the ophthalmic agents were instilled.
compound,measurement,setting,value
"CC[C@@H]1C(=O)OC[C@@H]1Cc1cncn1C [Pilocarpine, pilocarpine]",mean decrease from the baseline in pupil diameter,instillation after TBUT,2.44 units
same,mean decrease from the baseline in pupil diameter,instillation before TBUT,1.12 units
same,greater pupil constriction with instillation after TBUT vs before TBUT,over the 30 minute period,29.44%
